Source: patent publication US10899769B2, “Imidazopiperazinone inhibitors of transcription activating proteins” (Board of Regents, The University of Texas System, priority 2018, dated 2021)

Assays:
[1] = target: GST-CBP(1081-1197) bromodomain (Homo sapiens (Human), UniProt Q92793); assay: CBP AlphaScreen Assay; details: binding to biotin-H4(1-21) Ac-K5/8/12/16
Method: (§1) Specific binding of the CBP or BRD4 bromodomain to the acetylated peptide derived from the H4 histone substrate (tetra acetylated H4(1-21) Ac-K5/8/12/16) was measured in absence or presence of inhibitors. The GST tagged bromodomains of CBP (1081-1197) and BRD4 (49-170) were obtained from BPS Bioscience and binding to the biotinylated H4(1-21) Ac-K5/8/12/16 (AnaSpec. 64989) was assessed via AlphaScreen technology (Perkin Elmer).
(§2) 5 nM GST-CBP(1081-1197) and 20 nM biotin-H4(1-21) Ac-K5/8/12/16 (AnaSpec. 64989) were incubated with varying concentrations of CBP inhibitors in 15 μL of buffer containing 50 mM HEPES 7.5, […], 1 mM TCEP, and 0.003% Tween-20. After 30 minutes incubation at room temperature, 15 μL of detection buffer (BPS Bio. 33006) containing 7 μg/mL of Glutathione AlphaLisa acceptor beads (Perkin Elmer AL109) and 14 μg/mL of Streptavidin donor beads (Perkin Elmer 676002) was then added to the previous mixture. The reaction was incubated for an additional 2 hours at room temperature, and the AlphaScreen signal was quantified using the Envision Multilabel plate reader. As negative control, GST-CBP(1081-1197) was incubated with the non-acetylated biotin-H4(1-21) peptide(AnaSpec. 62555) and in presence of 0.25% of final DMSO concentration.
(§3) the binding of 2.5 nM of BRD4(49-170) to 10 nM biotin-H4(1-21) Ac-K5/8/12/16 (AnaSpec. 64989) was assessed following the same procedure described for the CBP assay. The standard dose response curves were fitted by Genedata Screener software using the variable-slope model: Signal=Signalnegative control+(SignalDMSO control−Signalnegative control)/(1+(IC50/Dose)^Hill slope).
(§4) Only Signal and Dose in the equation were treated as know values.

BRD4(49-170) bromodomain = BRD4(49-170) bromodomain (Homo sapiens (Human), UniProt O60885); assay: BRD4 AlphaScreen Assay; details: binding to biotin-H4(1-21) Ac-K5/8/12/16
Method: as §1, §2, §3, §4

Sequence of GST-CBP(1081-1197) bromodomain (Q92793 1081-1197): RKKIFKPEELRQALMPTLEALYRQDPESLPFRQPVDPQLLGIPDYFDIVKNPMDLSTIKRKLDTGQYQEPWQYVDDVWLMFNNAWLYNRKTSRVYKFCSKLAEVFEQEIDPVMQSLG

CC1C(=O)N(C)Cc2c(-c3ccc4sccc4c3)nc(C3CC3)n21 (stereo not shown) [Example 52, 1-(benzo[b]thiophen-5-yl)-3-cyclopropyl-5,7-dimethyl-7,8-dihydroimidazo[1,5-a] pyrazin-6(5H)-one] gave an IC50 [1] of 94 nM and an IC50 (BRD4(49-170) bromodomain) of 487 nM.
CC1C(=O)N(C)Cc2c(-c3cccc4nc(-c5cnn(C)c5)c(C(F)F)cc34)nc(C3CN(S(C)(=O)=O)C3)n21 (stereo not shown) [Example 20, 1-(3-(Difluoromethyl)-2-(1-methyl-1H-pyrazol-4-yl)quinolin-5-yl)-5,7-dimethyl-3-(1-(methylsulfonyl)azetidin-3-yl)-7,8-dihydroimidazo[1,5-a]pyrazin-6(5H)-one] was tested, and the IC50 [1] was 37 nM and the IC50 (BRD4(49-170) bromodomain) was 8570 nM.
CC1C(=O)N(C)Cc2c(-c3cccc4nc(-c5cnn(C)c5)c(C#N)cc34)nc(C3CC3)n21 (single isomer, unassigned) [Example 56a, 5-(3-cyclopropyl-5,7-dimethyl-6-oxo-5,6,7,8-tetrahydroimidazo[1,5-a]pyrazin-1-yl)-2-(1-methyl-1H-pyrazol-4-yl)quinoline-3-carbonitrile] was tested, and the IC50 [1] was 424 nM and the IC50 (BRD4(49-170) bromodomain) was 25000 nM.
Work on CC1C(=O)N(C)Cc2c(-c3cccc4nc(-c5cnn(C)c5)c(C(F)F)cc34)nc(C3CCS(=O)(=O)CC3)n21 (single isomer, unassigned) [Example 29a, 1-(3-(Difluoromethyl)-2-(1-methyl-1H-pyrazol-4-yl)quinolin-5-yl)-3-(1,1-dioxidotetrahydro-2H-thiopyran-4-yl)-5,7-dimethyl-7,8-dihydroimidazo[1,5-a]pyrazin-6(5H)-one] yielded an IC50 [1] of 6500 nM and an IC50 (BRD4(49-170) bromodomain) of no less than 25000 nM.
Cc1ncn(-c2nc3cccc(-c4nc(C5CC5)n5c4CN(C)C(=O)C5C)c3cc2C(F)F)n1 (stereo not shown) [Example 67, 3-cyclopropyl-1-(3-(difluoromethyl)-2-(3-methyl-1H-1,2,4-triazol-1-yl)quinolin-5-yl)-5,7-dimethyl-7,8-dihydroimidazo[1,5-a] pyrazin-6(5H)-one] gave an IC50 [1] of 3 nM and an IC50 (BRD4(49-170) bromodomain) of 319 nM.
CC1C(=O)N(C)Cc2c(-c3cccc4nc(-c5ncco5)c(C(F)F)cc34)nc(C3CC3)n21 (stereo not shown) [Example 74, 3-cyclopropyl-1-(3-(difluoromethyl)-2-(oxazol-2-yl)quinolin-5-yl)-5,7-dimethyl-7,8-dihydroimidazo[1,5-a] pyrazin-6(5H)-one] showed an IC50 [1] of 4 nM and an IC50 (BRD4(49-170) bromodomain) of 179 nM.
Work on CC1C(=O)N(C)Cc2c(-c3cccc4cc(-c5noc(=O)[nH]5)ncc34)nc(C3CC3)n21 (single isomer, unassigned) [Example 44b, 3-(8-(3-Cyclopropyl-5,7-dimethyl-6-oxo-5,6,7,8-tetrahydroimidazo[1,5-a]pyrazin-1-yl)isoquinolin-3-yl)-1,2,4-oxadiazol-5(4H)-one] yielded an IC50 [1] of 1 nM and an IC50 (BRD4(49-170) bromodomain) of 1460 nM.
CC1C(=O)N(C)Cc2c(-c3cccc4cc(C5CCOCC5)ncc34)nc(C3CCOCC3)n21 (single isomer, unassigned) [Example 15b, 5,7-dimethyl-3-(tetrahydro-2H-pyran-4-yl)-1-(3-(tetrahydro-2H-pyran-4-yl)isoquinolin-8-yl)-7,8-dihydroimidazo[1,5-a]pyrazin-6(5H)-one] showed an IC50 [1] of 2 nM and an IC50 (BRD4(49-170) bromodomain) of 195 nM.
Molecule CN1Cc2c(-c3cccc4cc(N5CCOCC5)ncc34)nc(C3CCOCC3)n2CC1=O [Example 94, 7-methyl-1-(3-morpholinoisoquinolin-8-yl)-3-(tetrahydro-2H-pyran-4-yl)-7,8-dihydroimidazo[1,5-a] pyrazin-6(5H)-one] has an IC50 [1] of 145 nM and an IC50 (BRD4(49-170) bromodomain) of no less than 25000 nM.
Cc1ncc(-c2cc3ccc(C)c(-c4nc(C5CCOCC5)n5c4CN(C)C(=O)C5C)c3cn2)s1 (single isomer, unassigned) [Example 38b] was tested, and the IC50 [1] was 302 nM and the IC50 (BRD4(49-170) bromodomain) was 4860 nM.
Work on CCC1C(=O)N(C)Cc2c(-c3cccc4nc(-c5cnn(C)c5)c(C(F)F)cc34)nc(C3CCOCC3)n21 (single isomer, unassigned) [Example 64a, 1-(3-(difluoromethyl)-2-(1-methyl-1H-pyrazol-4-yl)quinolin-5-yl)-5-ethyl-7-methyl-3-(tetrahydro-2H-pyran-4-yl)-7,8-dihydroimidazo[1,5-a] pyrazin-6(5H)-one] yielded an IC50 [1] of 2430 nM and an IC50 (BRD4(49-170) bromodomain) of 25000 nM.
In the case of CC1C(=O)N(C)Cc2c(-c3ccc4cncn4c3)nc(C3CC3)n21 (stereo not shown) [Example 54, 3-cyclopropyl-1-(imidazo[1,5-a]pyridin-6-yl)-5,7-dimethyl-7,8-dihydroimidazo[1,5-a] pyrazin-6(5H)-one], the IC50 [1] is reported as 751 nM and the IC50 (BRD4(49-170) bromodomain) is reported as 2100 nM.
For CC1C(=O)N(C)Cc2c(-c3cccc4cc(-c5cnn(C)c5)ncc34)nc(C3CCOCC3)n21 (stereo not shown) [Example 109, 5,7-dimethyl-1-(3-(1-methyl-1H-pyrazol-4-yl)isoquinolin-8-yl)-3-(tetrahydro-2H-pyran-4-yl)-7,8-dihydroimidazo[1,5-a] pyrazin-6(5H)-one], the IC50 [1] was 2 nM and the IC50 (BRD4(49-170) bromodomain) was 341 nM.
CN1Cc2c(N3CCCc4nc(-c5cnn(C)c5)c(C(F)(F)F)cc43)nc(C3CC3)n2CC1=O [Example 39, 3-Cyclopropyl-7-methyl-1-(6-(1-methyl-1H-pyrazol-4-yl)-7-(trifluoromethyl)-3,4-dihydro-1,5-naphthyridin-1(2H)-yl)-7,8-dihydroimidazo[1,5-a]pyrazin-6(5H)-one] was tested, and the IC50 [1] was 185 nM and the IC50 (BRD4(49-170) bromodomain) was 25000 nM.
In the case of CC1C(=O)N(C)Cc2c(-c3cccc4cc(-c5ncco5)ncc34)nc(C3CC3)n21 (stereo not shown) [Example 66, 3-cyclopropyl-5,7-dimethyl-1-(3-(oxazol-2-yl)isoquinolin-8-yl)-7,8-dihydroimidazo[1,5-a] pyrazin-6(5H)-one], the IC50 [1] is reported as 11 nM and the IC50 (BRD4(49-170) bromodomain) is reported as 1590 nM.
Molecule CC1C(=O)N(C)Cc2c(-c3cccc4nc(-c5cnn(C)c5)c(C(F)F)cc34)nc(C3CN(CC(F)(F)F)C3)n21 (stereo not shown) [Example 21, 1-(3-(Difluoromethyl)-2-(1-methyl-1H-pyrazol-4-yl)quinolin-5-yl)-5,7-dimethyl-3-(1-(2,2,2-trifluoroethyl)azetidin-3-yl)-7,8-dihydroimidazo[1,5-a]pyrazin-6(5H)-one] has an IC50 [1] of 13 nM and an IC50 (BRD4(49-170) bromodomain) of 6160 nM.
Molecule Cc1nn(C)cc1-c1cc2ccc(F)c(-c3nc(C4CCOCC4)n4c3CN(C)C(=O)C4C)c2cn1 (single isomer, unassigned) [Example 91b, 1-(3-(1,3-dimethyl-1H-pyrazol-4-yl)-7-fluoroisoquinolin-8-yl)-5,7-dimethyl-3-(tetrahydro-2H-pyran-4-yl)-7,8-dihydroimidazo[1,5-a] pyrazin-6(5H)-one] has an IC50 [1] of 3 nM and an IC50 (BRD4(49-170) bromodomain) of 287 nM.
For CCN1Cc2c(N3CCCc4cc(-c5cnn(C)c5)c(C(F)F)cc43)nc(C3CC3)n2CC1=O [Example 4, 3-Cyclopropyl-1-(7-(difluoromethyl)-6-(1-methyl-1H-pyrazol-4-yl)-3,4-dihydroquinolin-1(2H)-yl)-7-ethyl-7,8-dihydroimidazo[1,5-a]pyrazin-6(5H)-one], the IC50 [1] was 6 nM and the IC50 (BRD4(49-170) bromodomain) was 17600 nM.
In the case of CC1C(=O)N(C)Cc2c(-c3c(F)ccc4cc(-c5ccn(C)n5)ncc34)nc(C3CCOCC3)n21 (single isomer, unassigned) [Example 90b, 1-(7-fluoro-3-(1-methyl-1H-pyrazol-3-yl)isoquinolin-8-yl)-5,7-dimethyl-3-(tetrahydro-2H-pyran-4-yl)-7,8-dihydroimidazo[1,5a] pyrazin-6(5H)-one], the IC50 [1] is reported as 4 nM and the IC50 (BRD4(49-170) bromodomain) is reported as 879 nM.
CC1C(=O)N(C)Cc2c(-c3cccc4nc(-c5cnn(C)c5)c(C(F)(F)F)cc34)nc(C3CCOCC3)n21 (single isomer, unassigned) [Example 26b, 5,7-Dimethyl-1-(2-(1-methyl-1H-pyrazol-4-yl)-3-(trifluoromethyl)quinolin-5-yl)-3-(tetrahydro-2H-pyran-4-yl)-7,8-dihydroimidazo[1,5-a]pyrazin-6(5H)-one] showed an IC50 [1] of 271 nM and an IC50 (BRD4(49-170) bromodomain) of 11700 nM.
CNC(=O)N1CCC(c2nc(-c3cccc4nc(-c5cnn(C)c5)c(C(F)F)cc34)c3n2C(C)C(=O)N(C)C3)CC1 (stereo not shown) [Example 79, 4-(1-(3-(difluoromethyl)-2-(1-methyl-1H-pyrazol-4-yl)quinolin-5-yl)-5,7-dimethyl-6-oxo-5,6,7,8-tetrahydroimidazo[1,5-a]pyrazin-3-yl)-N-methylpiperidine-1-carboxamide] was tested, and the IC50 [1] was 39 nM and the IC50 (BRD4(49-170) bromodomain) was 2430 nM.
In the case of Cc1ncc(-c2cc3cccc(-c4nc(C5CC5)n5c4CN(C)C(=O)C5C)c3cn2)s1 (stereo not shown) [Example 13, 3-Cyclopropyl-5,7-dimethyl-1-(3-(2-methylthiazol-5-yl)isoquinolin-8-yl)-7,8-dihydroimidazo[1,5-a]pyrazin-6(5H)-one], the IC50 [1] is reported as 2 nM and the IC50 (BRD4(49-170) bromodomain) is reported as 187 nM.
Molecule Cc1ncn(-c2cc3cccc(-c4nc(C5CC5)n5c4CN(C)C(=O)C5C)c3cn2)n1 (stereo not shown) [Example 71, 3-cyclopropyl-5,7-dimethyl-1-(3-(3-methyl-1H-1,2,4-triazol-1-yl)isoquinolin-8-yl)-7,8-dihydroimidazo[1,5-a] pyrazin-6(5H)-one] has an IC50 [1] of 4 nM and an IC50 (BRD4(49-170) bromodomain) of 868 nM.
